These results are taken from US20100105723A1, “5-PHENYL-6-PYRIDIN-4-YL-1,3-DIHYDRO-2H-IMIDAZO[4,5-b]PYRIDIN-2-ONE DERIVATIVES USEFUL AS A2B ADENOSINE RECEPTOR ANTAGONISTS” (priority 2006, published 2010).

SMILES strings stand for the structures.

For one experiment, the target named is T1, human A1 receptor (Homo sapiens, UniProt P30542).
T1 construct: host or cells: CHO
T1 sequence (P30542 1-326): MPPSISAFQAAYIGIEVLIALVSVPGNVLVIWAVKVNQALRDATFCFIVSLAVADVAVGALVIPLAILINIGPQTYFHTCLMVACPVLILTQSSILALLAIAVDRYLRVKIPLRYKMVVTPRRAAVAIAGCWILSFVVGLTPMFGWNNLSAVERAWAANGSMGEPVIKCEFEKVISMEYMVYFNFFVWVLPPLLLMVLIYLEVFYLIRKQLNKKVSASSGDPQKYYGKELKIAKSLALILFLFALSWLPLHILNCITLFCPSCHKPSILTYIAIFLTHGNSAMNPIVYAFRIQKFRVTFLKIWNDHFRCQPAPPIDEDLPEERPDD
Briefly: A1 radioligand filtration binding assay (3H-DPCPX). The settings on record: membranes from CHO cells transfected with human A1 receptor; mean of at least two independent determinations; read-out: Ki hA1. The protocol:
For A1 receptors a filtration binding assay was performed with 2 nM ^3H-DPCPX, […] unlabelled R-PIA, membranes from CHO cells transfected with human A1 receptor (Euroscreen ES-010-C) and incubated 90 min. at room temperature in Hepes 20 mM pH 7.4, NaCl 100 mM, MgCl2 10 mM and 2 U/ml adenosin deaminase.

In a further experiment the target is T2, human A3 receptor (Homo sapiens, UniProt P0DMS8).
T2 construct: expressed in transfected cells; host or cells: HeLa
T2 sequence (P0DMS8 1-318): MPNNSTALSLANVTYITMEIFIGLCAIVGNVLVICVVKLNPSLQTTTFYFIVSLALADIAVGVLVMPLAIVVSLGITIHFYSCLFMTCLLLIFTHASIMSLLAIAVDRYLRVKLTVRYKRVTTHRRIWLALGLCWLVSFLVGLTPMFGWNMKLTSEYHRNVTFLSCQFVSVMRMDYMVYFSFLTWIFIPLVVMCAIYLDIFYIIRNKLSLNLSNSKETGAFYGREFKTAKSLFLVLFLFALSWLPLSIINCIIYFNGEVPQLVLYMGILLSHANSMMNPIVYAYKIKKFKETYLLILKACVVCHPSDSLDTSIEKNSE
As to the kind of experiment: A3 radioligand filtration binding assay (3H-NECA). The settings on record: for inhibition at 1 µM: at indicated concentration (1000 nM), read-out: % inhibition of radioligand binding at indicated concentration, hA3; for Ki: membranes from HeLa cells transfected with human A3 receptor, read-out: Ki hA3. Here is the method:
For A3 receptors, in filtration binding assay, 30 nM ^3H-NECA, […] unlabelled R-PIA, […] membranes from HeLa cells transfected with human A3 receptor, incubated 3 h. at room temperature in TrisHCl 50 mM pH 7.4, EDTA 1 mM, MgCl2 5 mM, 2 U/ml adenosin deaminase.

The next experiment has as its target T3, human A2B receptor (Homo sapiens, UniProt P29275).
T3 construct: host or cells: HEK293
T3 sequence (P29275 1-332): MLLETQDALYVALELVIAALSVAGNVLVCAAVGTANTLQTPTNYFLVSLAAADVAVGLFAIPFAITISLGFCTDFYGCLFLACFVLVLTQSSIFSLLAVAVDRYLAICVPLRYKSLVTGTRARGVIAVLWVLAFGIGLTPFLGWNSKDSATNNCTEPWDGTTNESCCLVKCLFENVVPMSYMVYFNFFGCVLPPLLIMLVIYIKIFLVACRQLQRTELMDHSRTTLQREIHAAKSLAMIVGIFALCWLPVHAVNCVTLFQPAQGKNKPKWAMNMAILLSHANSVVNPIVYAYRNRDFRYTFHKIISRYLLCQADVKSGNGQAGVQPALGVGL
Briefly: A2B radioligand filtration binding assay ([3H]-DPCPX competition). The settings on record: membranes from HEK293 cells expressing human A2B receptor; mean of at least two independent determinations; read-out: Ki hA2B. Here is the method: For A2B, competition assays were carried out in filtration binding assay, incubating in polypropylene 96 well-plates (n^o 267245, NUNC) containing 2 μL of either 1% DMSO solution, test compound or 100 μM 5′NECA (SIGMA E-2387) for non-specific binding, 100 μg of A2B-membranes prepared from HEK293 cells stably expressing the human A2B receptor (Euroscreen ES-013-C) and 35 nM [^3H]-DPCPX (TRK1064, 128 Ci/mmol, Amersham), in a total volume of 200 μl of buffer A+2 Ul/ml adenosine deaminase, for 60 minutes at room temperature.

Another experiment concerns the target T4, human A2A receptor (Homo sapiens, UniProt P29274).
T4 construct: expressed in transfected cells; host or cells: HeLa
As to the kind of experiment: A2A radioligand SPA binding assay (3H-ZM241385). The settings on record: for Ki: membranes from HeLa cells transfected with human A2A receptor, mean of at least two independent determinations, read-out: Ki hA2A. The protocol:
For A2A receptors binding technology was SPA (Amhersham) with 3,3 nM ^3H-ZM241385, […] unlabelled NECA, membranes from HeLa cells transfected with human A2A receptor, incubated 1 h. at room temperature with 1 mg YSi-WGA beads in TrisHCl 50 mM pH 7.4, EDTA 1 mM, MgCl2 10 mM, 2 U/ml adenosin deaminase.

T4 sequence (P29274 whole entry): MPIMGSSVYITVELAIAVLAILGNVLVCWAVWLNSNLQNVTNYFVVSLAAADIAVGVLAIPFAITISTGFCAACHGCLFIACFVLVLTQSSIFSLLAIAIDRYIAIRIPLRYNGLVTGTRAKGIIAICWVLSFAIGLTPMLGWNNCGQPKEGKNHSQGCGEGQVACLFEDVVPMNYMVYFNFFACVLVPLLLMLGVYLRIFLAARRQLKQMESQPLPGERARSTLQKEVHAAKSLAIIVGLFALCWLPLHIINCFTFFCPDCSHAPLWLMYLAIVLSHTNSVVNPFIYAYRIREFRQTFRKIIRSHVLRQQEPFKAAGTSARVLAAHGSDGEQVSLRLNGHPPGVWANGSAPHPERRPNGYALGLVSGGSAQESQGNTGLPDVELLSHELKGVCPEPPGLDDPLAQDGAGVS

A word on the Ki: it is a measure of affinity in units of concentration, obtained from inhibition or displacement. Regarding `O=c1[nH]c2cc(-c3ccncc3Cl)c(-c3ccccc3F)nc2[nH]1` [Example 2, 6-(3-Chloropyridin-4-yl)-5-(2-fluorophenyl)-1,3-dihydro-2H-imidazo[4,5-b]pyridin-2-one], the Ki at human A1 receptor was 76 nM; on human A3 receptor, above 1000 nM; on human A2B receptor, 1.8 nM; at human A2A receptor, 449 nM. Also, the inhibition at 1 µM at human A3 receptor is 22%.

Take `O=c1[nH]c2cc(-c3ccncc3F)c(-c3ccccc3F)nc2[nH]1` [Example 1, 5-(2-Fluorophenyl)-6-(3-fluoropyridin-4-yl)-1,3-dihydro-2H-imidazo[4,5-b]pyridin-2-one]: the Ki was 35 nM on human A1 receptor, above 1000 nM on human A3 receptor, 0.9 nM at human A2B receptor and 721 nM on human A2A receptor. Moreover, the inhibition at 1 µM on human A3 receptor turned out to be 19%.

Regarding `O=c1[nH]c2cc(-c3c(F)cncc3F)c(-c3ccccc3F)nc2[nH]1` [Example 3, 6-(3,5-Difluoropyridin-4-yl)-5-(2-fluorophenyl)-1,3-dihydro-2H-imidazo[4,5-b]pyridin-2-one], the Ki is 632 nM on human A1 receptor, above 1000 nM on human A3 receptor, 1.1 nM at human A2B receptor and above 2500 nM on human A2A receptor. Also, at human A3 receptor, the inhibition at 1 µM worked out at 18%. Besides, the inhibition at 2.5 µM on human A2A receptor (at indicated concentration (2500 nM), read-out: % inhibition of radioligand binding at indicated concentration, hA2A) was determined as 6%.
